Tests used:
[1] = Differential scanning calorimetry (DSC), degree of crystallinity; type: physicochemical
From the text: The coated herbicide powder and the water dispersible granule compositions described herein include coated, solid particles of fluroxypyr-meptyl that are largely or nearly completely in crystalline form. The degree of crystallinity of the solid particles of fluroxypyr-meptyl in these compositions (i.e., the weight percent of the fluroxypyr-meptyl that is in crystalline form) can be determined by differential scanning calorimetry (DSC) analysis and comparing the thermal properties of these compositions to a crystalline, non-coated sample of fluroxypyr-meptyl. In some embodiments, the coated particles of fluroxypyr-meptyl in these compositions have a degree of crystallinity that is at least about 70%, at least about 80%, at least about 90%, at least about 91%, at least about 92%, at least about 93%, at least about 94%, at least about 95%, at least about 96%, at least about 97%, at least about 98%, or at least about 99% and is reached within about one day, within about 2 days, within about 3 days, within about 4 days, within about 5 days, within about 6 days, or within about 7 days from the time of preparation of these solid compositions. […]

[2] = cited from earlier work

CCCCCCC(C)OC(=O)COc1nc(F)c(Cl)c(N)c1Cl (centres unmarked) [Fluroxypyr-meptyl, 2-methylheptyl ester of 4-amino-3,5-dichloro-6-fluoro-2-pyridyloxyacetic acid]
DSC Thermal Data: Heat Flow (absorbed) [1]: 70.01 J/g | solubility in water [2]: < 1 ppm
